Data from US20250228239A1, “MOLECULES HAVING PESTICIDAL UTILITY, AND INTERMEDIATES, COMPOSITIONS, AND PROCESSES, RELATED THERETO” (priority 2024, published 2025).
Where two headings read alike, the source gives them in different places.

How the values were obtained:
Type in all cases: in vivo
[1] = system: Beet Armyworm (Spodoptera exigua, LAPHEG); assay: Bioassays on Beet Armyworm (BAW), 128-well diet tray assay; details: Spodoptera exigua
Outline: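 Mortality of second-instar larvae (1–5/well) on artificial diet treated with 50 μg/cm^2 compound, read after 5–7 days at 25° C.; values are means of eight wells.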

[2] = system: Yellow Fever Mosquito (Aedes aegypti, AEDSAE); details: for YFM rating: Table ABC / ABC-DP rating
Outline: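 Compounds from 4000 ppm DMSO stocks were diluted in 90:10 water/acetone and dispensed into wells, then infested with about 1-day-old larvae in liver-powder water. Covered plates were held at room temperature for 3 days and each well was scored for mortality against a rating scale; six replicate plates per compound.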

[3] = system: Cabbage Looper (Trichoplusia ni, TRIPNI); assay: Bioassays on Cabbage Looper (CL), 128-well diet tray assay; details: Trichoplusia ni
Outline: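 Diet tray, 2nd instar, 1–5 larvae/well; 50 μg/cm^2 compound surface-applied (acetone:water 90:10), dried; 8 wells/treatment; 25° C, 14:10 L:D, 5–7 d; % mortality, mean of 8 wells.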

[4] = Beet Armyworm, Table ABC / ABC-DP rating, read-out: BAW rating
[5] = Cabbage Looper, Table ABC / ABC-DP rating, read-out: CL rating
[6] = Beet Armyworm, rating class, read-out: BAW
[7] = Yellow Fever Mosquito, rating class
[8] = Cabbage Looper, rating class, read-out: CL
[9] = Table ABC: Biological Results, species BAW, read-out: BAW
[10] = Table ABC: Biological Results, species YFM
[11] = Table ABC: Biological Results, species CL, read-out: CL

SMILES	pest or weed control at 50 µg/cm2 [1, 4]	YFM rating ([2]; Yellow Fever Mosquito)	pest or weed control at 50 µg/cm2 [3, 5]	pest or weed control at 50 µg/cm2 [1, 6]	YFM [2, 7]	pest or weed control at 50 µg/cm2 [3, 8]	further results
O=C(NCC(F)(F)F)c1cc(NC(=O)[C@H]2[C@@H](c3cc(C(F)(F)F)cc(Cl)c3F)C2(Cl)Cl)ccc1Cl (relative stereo) [F2013, cis-2-Chloro-5-(2,2-dichloro-3-(3-chloro-2-fluoro-5-(trifluoromethyl)phenyl)cyclopropane-1-carboxamido)-N-(2,2,2-trifluoroethyl)benzamide]	50 to 100%	A (80–100)	50 to 100%	–	–	–	–
Nc1c(F)ccc(NC(=O)c2cc(NC(=O)[C@H]3[C@H](c4cccc(F)c4)C3(Cl)Cl)ccc2Cl)c1F (relative stereo) [F1596, trans-N-(3-Amino-2,4-difluorophenyl)-2-chloro-5-(2,2-dichloro-3-(3-fluorophenyl)cyclopropane-1-carboxamido)benzamide]	–	–	–	50 to 100%	A (80–100)	50 to 100%	–
CN(C(=O)c1cc(NC(=O)[C@H]2[C@H](c3cc(Cl)cc(Cl)c3)C2(Cl)Cl)ccc1C#N)c1ccc(F)cc1F (relative stereo) [F1039, trans-2-Cyano-5-(2,2-dichloro-3-(3,5-dichlorophenyl)cyclopropane-1-carboxamido)-N-(2,4-difluorophenyl)-N-methylbenzamide]	–	–	–	–	–	–	pest or weed control at 50 µg/cm2 [1, 9]: 50 to 100%; YFM [2, 10]: A (80–100); pest or weed control at 50 µg/cm2 [3, 11]: 50 to 100%
O=C(COC(F)(F)F)Nc1c(F)ccc(NC(=O)c2cc(NC(=O)[C@H]3[C@H](c4cc(C(F)(F)F)cc(C(F)(F)F)c4)C3(Cl)Cl)ccc2Cl)c1F (relative stereo) [F1804, trans-5-(3-(3,5-bis(Trifluoromethyl)phenyl)-2,2-dichlorocyclopropane-1-carboxamido)-2-chloro-N-(2,4-difluoro-3-(2-(trifluoromethoxy)acetamido)phenyl)benzamide]	50 to 100%	A (80–100)	50 to 100%	–	–	–	–
O=C(Nc1ccc(F)cc1F)c1cc(NC(=O)[C@H]2[C@H](c3cccc(I)c3)C2(Cl)Cl)ccc1Cl (relative stereo) [F1088, trans-2-Chloro-5-(2,2-dichloro-3-(3-iodophenyl)cyclopropane-1-carboxamido)-N-(2,4-difluorophenyl)benzamide]	–	–	–	–	–	–	pest or weed control at 50 µg/cm2 [1, 9]: 50 to 100%; YFM [2, 10]: A (80–100); pest or weed control at 50 µg/cm2 [3, 11]: 50 to 100%
CC(=O)Nc1ccc(F)c(NC(=O)c2cc(NC(=O)[C@H]3[C@H](c4cc(Cl)c(Cl)c(Cl)c4)C3(Cl)Cl)ccc2F)c1F [F1556, N-(3-Acetamido-2,6-difluorophenyl)-5-((1R,3R)-2,2-dichloro-3-(3,4,5-trichlorophenyl)cyclopropane-1-carboxamido)-2-fluorobenzamide]	–	–	–	50 to 100%	A (80–100)	50 to 100%	–
O=C(Nc1ccc(F)c(NC(=O)C(F)F)c1F)c1cc(NC(=O)[C@H]2[C@H](c3cc(Cl)c(Cl)c(Cl)c3)C2(Cl)Cl)cc(F)c1F [F1437, 5-((1R,3R)-2,2-Dichloro-3-(3,4,5-trichlorophenyl)cyclopropane-1-carboxamido)-N-(3-(2,2-difluoroacetamido)-2,4-difluorophenyl)-2,3-difluorobenzamide]	–	–	–	50 to 100%	A (80–100)	50 to 100%	–
CC(C)(C)OC(=O)N(C(=O)OC(C)(C)C)c1c(F)ccc(NC(=O)c2cc(NC(=O)[C@H]3[C@H](c4ccc(Cl)c(Cl)c4)C3(Cl)Cl)ccc2Cl)c1F [DP7, tert-Butyl-N-((tert-butoxy)carbonyl)-N-(3-(2-chloro-5-((1R,3R)-2,2-dichloro-3-(3,4-dichlorophenyl)cyclopropane-1-carboxamido)benzamido)-2,6-difluorophenyl)carbamate]	50 to 100%	–	0 to 50%	–	–	–	mortality at 50 µg/cm2 ([1]; 168 h, second instar larvae, 50 μg/cm^2 of test molecule on artificial diet, 25° C., five to seven days, average of eight wells, read-out: BAW % Control (or Mortality) rating): 50 to 100%; YFM % Control (or Mortality) rating ([2]; about 1 day-old larvae, 4000 ppm master solution diluted with 90:10 water/acetone, 15 μL per well plus 220 μL larval mixture, 3 days, mortality): D (No activity noticed in this bioassay); mortality at 50 µg/cm2 ([3]; 168 h, second instar larvae, 50 μg/cm^2 of test molecule on artificial diet, 25° C., five to seven days, average of eight wells, read-out: CL % Control (or Mortality) rating): 0 to 50%
O=C(NCC(F)(F)C(F)(F)F)c1c(F)ccc(NC(=O)[C@H]2[C@H](c3ccc(F)c(Cl)c3)C2(Cl)Cl)c1F (relative stereo) [F2018, trans-3-(2,2-Dichloro-3-(3-chloro-4-fluorophenyl)cyclopropane-1-carboxamido)-2,6-difluoro-N-(2,2,3,3,3-pentafluoropropyl)benzamide]	50 to 100%	A (80–100)	50 to 100%	–	–	–	–
O=C(/C=C/C(F)(F)F)Nc1c(F)ccc(NC(=O)c2cc(NC(=O)[C@H]3[C@H](c4ccc(F)c(C(F)(F)F)c4)C3(Cl)Cl)ccc2Cl)c1F [F1869, 2-Chloro-5-((1R,3R)-2,2-dichloro-3-(4-fluoro-3-(trifluoromethyl)phenyl)cyclopropane-1-carboxamido)-N-(2,4-difluoro-3-((E)-4,4,4-trifluorobut-2-enamido)phenyl)benzamide]	50 to 100%	A (80–100)	50 to 100%	–	–	–	–
CC(C)(Br)C(=O)Nc1c(F)ccc(NC(=O)c2cc(NC(=O)[C@H]3[C@H](c4ccc(F)c(C(F)(F)F)c4)C3(Cl)Cl)ccc2Cl)c1F [F1354, N-(3-(2-Bromo-2-methylpropanamido)-2,4-difluorophenyl)-2-chloro-5-((1R,3R)-2,2-dichloro-3-(4-fluoro-3-(trifluoromethyl)phenyl)cyclopropane-1-carboxamido)benzamide]	–	–	–	–	–	–	pest or weed control at 50 µg/cm2 [1, 9]: 50 to 100%; YFM [2, 10]: A (80–100); pest or weed control at 50 µg/cm2 [3, 11]: 50 to 100%
CCCNC(=O)c1c(Cl)ccc(NC(=O)[C@H]2[C@H](c3ccc(F)c(Cl)c3)C2(Cl)Cl)c1Cl (relative stereo) [F2022, trans-2,6-Dichloro-3-(2,2-dichloro-3-(3-chloro-4-fluorophenyl)cyclopropane-1-carboxamido)-N-propylbenzamide]	50 to 100%	A (80–100)	50 to 100%	–	–	–	–
O=C(CCC(F)(C(F)(F)F)C(F)(F)F)Nc1c(F)ccc(NC(=O)c2cc(NC(=O)[C@H]3[C@H](c4ccc(F)c(C(F)(F)F)c4)C3(Cl)Cl)ccc2Cl)c1F [F1829, 2-Chloro-5-((1R,3R)-2,2-dichloro-3-(4-fluoro-3-(trifluoromethyl)phenyl)cyclopropane-1-carboxamido)-N-(2,4-difluoro-3-(4,5,5,5-tetrafluoro-4-(trifluoromethyl)pentanamido)phenyl)benzamide]	50 to 100%	A (80–100)	50 to 100%	–	–	–	–
CCCC(OCC)C(=O)Nc1c(F)ccc(NC(=O)c2cc(NC(=O)[C@H]3[C@H](c4ccc(F)c(C(F)(F)F)c4)C3(Cl)Cl)ccc2Cl)c1F (stereo partly drawn) [F1759, 2-Chloro-5-((1R,3R)-2,2-dichloro-3-(4-fluoro-3-(trifluoromethyl)phenyl)cyclopropane-1-carboxamido)-N-(3-(2-ethoxypentanamido)-2,4-difluorophenyl)benzamide]	–	–	–	50 to 100%	A (80–100)	50 to 100%	–
O=C(Nc1ccc(F)c(NC(=O)C(Cl)CCl)c1F)c1cc(NC(=O)[C@H]2[C@H](c3ccc(F)c(C(F)(F)F)c3)C2(Cl)Cl)ccc1Cl (stereo partly drawn) [F1728, 2-Chloro-5-((1R,3R)-2,2-dichloro-3-(4-fluoro-3-(trifluoromethyl)phenyl)cyclopropane-1-carboxamido)-N-(3-(2,3-dichloropropanamido)-2,4-difluorophenyl)benzamide]	–	–	–	50 to 100%	B (More than 0 – Less than 80)	50 to 100%	–
O=C(Nc1ccc(F)c(NC(=O)C(F)(F)C(F)F)c1F)c1cc(NC(=O)[C@H]2[C@H](c3cc(F)cc(C(F)(F)F)c3)C2(Cl)Cl)ccc1Cl [F1707, 2-Chloro-5-((1R,3R)-2,2-dichloro-3-(3-fluoro-5-(trifluoromethyl)phenyl)cyclopropane-1-carboxamido)-N-(2,4-difluoro-3-(2,2,3,3-tetrafluoropropanamido)phenyl)benzamide]	–	–	–	50 to 100%	A (80–100)	50 to 100%	–
O=C(Nc1ccc(F)c(NC(=O)C(F)(F)F)c1F)c1cc(NC(=O)[C@H]2[C@H](c3cc(Cl)c(Cl)c(Cl)c3)C2(Cl)Cl)ccc1F [F1526, 5-((1R,3R)-2,2-Dichloro-3-(3,4,5-trichlorophenyl)cyclopropane-1-carboxamido)-N-(2,4-difluoro-3-(2,2,2-trifluoroacetamido)phenyl)-2-fluorobenzamide]	–	–	–	50 to 100%	A (80–100)	50 to 100%	–
C=C(F)c1cc(NC(=O)c2cc(NC(=O)[C@H]3[C@H](c4cc(Cl)cc(Cl)c4)C3(Cl)Cl)ccc2Cl)cc(F)c1F (relative stereo) [F1323, trans-2-Chloro-5-(2,2-dichloro-3-(3,5-dichlorophenyl)cyclopropane-1-carboxamido)-N-(3,4-difluoro-5-(1-fluorovinyl)phenyl)benzamide]	–	–	–	–	–	–	pest or weed control at 50 µg/cm2 [1, 9]: 50 to 100%; YFM [2, 10]: A (80–100); pest or weed control at 50 µg/cm2 [3, 11]: 50 to 100%
